Results on 25 molecules are retold here after patent publication US9469615B2, “Quinoxalines and AZA-quinoxalines as CRTH2 receptor modulators” (Merck Sharp & Dohme Corp., priority 2010, dated 2016).

In the first experiment the target is T1, hCRTH2 (Homo sapiens, UniProt Q9Y5Y4).
T1 construct: expressed in transfected cells; host or cells: HEK (human embryonic kidney) cells expressing hCRTH2; membrane preparation
T1 sequence (Q9Y5Y4 1-395): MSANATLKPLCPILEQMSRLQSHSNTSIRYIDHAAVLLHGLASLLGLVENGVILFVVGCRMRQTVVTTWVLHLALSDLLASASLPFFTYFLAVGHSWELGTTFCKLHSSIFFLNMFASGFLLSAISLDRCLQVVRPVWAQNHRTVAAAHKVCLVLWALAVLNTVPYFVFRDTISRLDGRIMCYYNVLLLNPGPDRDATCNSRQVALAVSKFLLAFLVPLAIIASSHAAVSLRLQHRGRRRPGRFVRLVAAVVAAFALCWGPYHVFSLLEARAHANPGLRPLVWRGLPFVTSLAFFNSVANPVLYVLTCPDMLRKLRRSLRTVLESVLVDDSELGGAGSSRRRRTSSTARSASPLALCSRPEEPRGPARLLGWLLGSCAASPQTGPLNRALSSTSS
In words: Radioligand binding assay ([3H]PGD2 competition, HEK-hCRTH2 membranes). The settings on record: [3H]PGD2 binding, values in text. The procedure, abridged: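 Competition against 3.0 nM [3H]PGD2 was run for 60 min at room temperature in pH 7.4 Tris-HCl buffer with EDTA, 2 mM MnCl2 and 1% DMSO, using 8-20 μg HEK-hCRTH2 membrane protein. 10 μM PGD2 set non-specific binding; filter-bound counts were read by scintillation.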
As to `C[C@H](NC(=O)c1ccc2nc(-c3ccccc3)c(CCCCC(=O)O)nc2c1)c1cncc2ccccc12` [compound 637, (S)-5-(7-((1-(isoquinolin-4-yl)ethyl)carbamoyl)-3-phenylquinoxalin-2-yl)pentanoic acid], affinity was put at a Ki of 4.2 nM.

Staying with this experiment, now noted: [3H]PGD2 competition, Table B.
In turn, `Cc1ccc(C)c(N2CCN(C(=O)c3ccc4nc(-c5ccc(Cl)cc5)c(CCCCC(=O)O)nc4c3)CC2)c1` [compound 629, 5-(3-(4-chlorophenyl)-7-(4-(2,5-dimethylphenyl)piperazine-l-carbonyl)quinoxalin-2-yl)pentanoic acid] showed a Ki of 0.1 to 2 nM.

As to `O=C(O)CCCCc1nc2cc(C(=O)N3C[C@@H]4C[C@H]3CN4Cc3ccccc3)ccc2nc1-c1ccc(Cl)cc1` [compound 630], the Ki fell in the range of 2.1 to 20 nM.

As for `N#Cc1ccccc1N1CCN(C(=O)c2ccc3nc(-c4ccc(Cl)cc4)c(CCCCC(=O)O)nc3c2)CC1` [compound 631, 5-(3-(4-chlorophenyl)-7-(4-(2-cyanophenyl)piperazine-1-carbonyl)quinoxalin-2-yl)pentanoic acid], the inhibitory constant (Ki) lay within 0.1 to 2 nM.

As to `COc1ccccc1C1CCN(C(=O)c2ccc3nc(-c4ccc(Cl)cc4)c(CCCCC(=O)O)nc3c2)CC1` [compound 632, 5-(3-(4-chlorophenyl)-7-(4-(2-methoxyphenyl)piperidine-1-carbonyl)quinoxalin-2-yl)pentanoic acid], the Ki was in the range of 0.1 to 2 nM.

Take `O=C(O)CCCCc1nc2cc(C(=O)N3CCC4(CC3)OCc3ccccc34)ccc2nc1-c1ccc(Cl)cc1` [compound 633, 5-(3-(4-chlorophenyl)-7-(3H-spiro[isobenzofuran-1,4′-piperidin]-1′-ylcarbonyl)quinoxalin-2-yl)pentanoic acid]: the Ki is 0.1 to 2 nM.

Regarding `O=C(O)CCCCc1nc2cc(C(=O)N3CCC4(CC3)CCN(c3ccccc3)C4=O)ccc2nc1-c1ccc(Cl)cc1` [compound 634, 5-(3-(4-chlorophenyl)-7-(1-oxo-2-phenyl-2,8-diazaspiro[4.5]decane-8-carbonyl)quinoxalin-2-yl)pentanoic acid], the Ki was in the range of 2.1 to 20 nM.

With `O=C(O)CCCCc1nc2cc(C(=O)N3CCN(c4cccc(Cl)c4Cl)CC3)ccc2nc1-c1ccc(Cl)cc1` [compound 635, 5-(3-(4-chlorophenyl)-7-(4-(2,3-dichlorophenyl)piperazine-1-carbonyl)quinoxalin-2-yl)pentanoic acid], the Ki fell in the range of 0.1 to 2 nM.

Consider `Cc1ccc(N2CCN(C(=O)c3ccc4nc(-c5ccc(Cl)cc5)c(CCCCC(=O)O)nc4c3)CC2)c(C)c1` [compound 636, 5-(3-(4-chlorophenyl)-7-(4-(2,4-dimethylphenyl)piperazine-1-carbonyl)quinoxa1in-2-yl)pentanoic acid], for which the Ki lay within 0.1 to 2 nM.

`C[C@H](NC(=O)c1ccc2nc(-c3ccccc3)c(CCCCC(=O)O)nc2c1)c1cncc2ccccc12` [compound 637, (S)-5-(7-((1-(isoquinolin-4-yl)ethyl)carbamoyl)-3-phenylquinoxalin-2-yl)pentanoic acid] gave a Ki of 2.1 to 20 nM.

Consider `C[C@@H](NC(=O)c1ccc2nc(-c3ccccc3)c(CCCCC(=O)O)nc2c1)c1cncc2ccccc12` [compound 638, (R)-5-(7-((1-(isoquinolin-4-yl)ethyl)carbamoyl)-3-phenylquinoxalin-2-yl)pentanoic acid], for which the Ki was 201 to 700 nM.

`C[C@@H](NC(=O)c1ccc2nc(-c3ccccc3)c(CCCCC(=O)O)nc2c1)c1cccc2ncccc12` [compound 639, (R)-5-(3-phenyl-7-((1-(quinolin-5-yl)ethyl)carbamoyl)quinoxalin-2-yl)pentanoic acid] registered a Ki of 20.1 to 200 nM.

Take `C[C@H](NC(=O)c1ccc2nc(-c3ccccc3)c(CCCCC(=O)O)nc2c1)c1cccc2ncccc12` [compound 640, (S)-5-(3-phenyl-7-((1-(quinolin-5-yl)ethyl)carbamoyl)quinoxalin-2-yl)pentanoic acid]: the Ki was 2.1 to 20 nM.

Turning to `O=C(O)CCCCc1nc2cc(C(=O)N[C@@H]3CCOc4ccc(F)cc43)ccc2nc1-c1ccccc1` [compound 641, (R)-5-(7-((6-fluoro-chroman-4-yl)carbamoyl)-3-phenylquinoxalin-2-yl)pentanoic acid], the Ki lay in the range of 2.1 to 20 nM.

`O=C(O)CCCCc1nc2cc(C(=O)N[C@@H]3CCOc4cc(F)c(F)cc43)ccc2nc1-c1ccccc1` [compound 642, (R)-5-(7-((6,7-difluorochroman-4-yl)carbamoyl)-3-phenylquinoxalin-2-yl)pentanoic acid]: the Ki was 2.1 to 20 nM.

The molecule `O=C(O)CCCCc1nc2cc(C(=O)N[C@@H]3CCOc4cc(F)ccc43)ccc2nc1-c1ccccc1` [compound 643, (R)-5-(7-((7-fluoro-chroman-4-yl)carbamoyl)-3-phenylquinoxalin-2-yl)pentanoic acid] yielded a Ki of 0.1 to 2 nM.

For `C[C@@H](c1ccccc1)N(C)C(=O)c1ccc2nc(-c3ccc(Cl)cc3)c(CCCCC(=O)O)nc2c1` [compound 644, (S)-5-(3-(4-chloro-phenyl)-7-(methyl(1-phenylethyl)carbamoyl)quinoxalin-2-yl) pentanoic acid], the Ki lay within 2.1 to 20 nM.

In the case of `O=C(O)CCCCc1nc2cc(C(=O)N3CCCCC3c3ccccc3)ccc2nc1-c1ccc(Cl)cc1` (centres unmarked) [compound 645, 5-(3-(4-chlorophenyl)-7-(2-phenylpiperidine-1-carbonyl)quinoxalin-2-yl)pentanoic acid], the inhibition constant Ki was in the range of 2.1 to 20 nM.

Molecule `O=C(O)CCCCc1nc2cc(C(=O)N3CCCC3c3ccccc3)ccc2nc1-c1ccc(Cl)cc1` (centres unmarked) [compound 646, 5-(3-(4-chlorophenyl)-7-(2-phenylpyrrolidine-1-carbonyl)quinoxalin-2-yl)pentanoic acid] had a Ki of 2.1 to 20 nM.

`O=C(O)CCCCc1nc2cc(C(=O)N3CCCCC3c3ccccn3)ccc2nc1-c1ccc(Cl)cc1` (centres unmarked) [compound 647, 5-(3-(4-chlorophenyl)-7-(2-(pyridin-2-yl)piperidine-1-carbonyl)quinoxalin-2-yl)pentanoic acid] returned an inhibition constant (Ki) of 20.1 to 200 nM.

As to `O=C(O)CCCCc1nc2cc(C(=O)N3CCC3c3ccccc3)ccc2nc1-c1ccc(Cl)cc1` (centres unmarked) [compound 648, 5-(3-(4-chlorophenyl)-7-(2-phenylazetidine-1-carbonyl)quinoxalin-2-yl)pentanoic acid], the Ki was 2.1 to 20 nM.

As for `CC(c1ccoc1)N(C)C(=O)c1ccc2nc(-c3ccc(Cl)cc3)c(CCCCC(=O)O)nc2c1` (centres unmarked) [compound 649, 5-(3-(4-chlorophenyl)-7-((1-(furan-3-yl)ethyl)(methyl)carbamoyl)quinoxalin-2-yl) pentanoic acid], the Ki lay in the range of 20.1 to 200 nM.

The molecule `O=C(O)CCCCc1nc2cc(C(=O)N3CCCC3c3ccncc3)ccc2nc1-c1ccc(Cl)cc1` (centres unmarked) [compound 650, 5-(3-(4-chlorophenyl)-7-(2-(pyridin-4-yl)pyrrolidine-1-carbonyl)quinoxalin-2-yl)pentanoic acid] gave a Ki of 20.1 to 200 nM.

Molecule `Cn1ccnc1C1CCCCN1C(=O)c1ccc2nc(-c3ccc(Cl)cc3)c(CCCCC(=O)O)nc2c1` (centres unmarked) [compound 651, 5-(3-(4-chlorophenyl)-7-(2-(1-methyl-1H-imidazol-2-yl)piperidine-1-carbonyl)quinoxalin-2-yl)pentanoic acid] came in with a Ki of 20.1 to 200 nM.

`Cc1nonc1C1CCCN1C(=O)c1ccc2nc(-c3ccc(Cl)cc3)c(CCCCC(=O)O)nc2c1` (centres unmarked) [compound 652, 5-(3-(4-chlorophenyl)-7-(2-(4-methyl-1,2,5-oxadiazol-3-yl)pyrrolidine-1-carbonyl)quinoxalin-2-yl)pentanoic acid] yielded a Ki of 2.1 to 20 nM.

In turn, `O=C(O)CCCCc1nc2cc(C(=O)N3CCCCCC3c3cccnc3)ccc2nc1-c1ccc(Cl)cc1` (centres unmarked) [compound 653, 5-(3-(4-chlorophenyl)-7-(2-(pyridin-3-yl)azepane-1-carbonyl)quinoxalin-2-yl)pentanoic acid] came in with a Ki of 201 to 700 nM.

What is called Ki is a dissociation constant, usually derived from enzyme kinetics or from competition with a known ligand. Read a high Ki as a looser hold on the target.
